Here are results for 3 compounds from US9000031B2, “Thioxanthone-based autophagy inhibitor therapies to treat cancer” (Spectrum Pharmaceuticals, Inc., priority 2010, dated 2015).

SMILES strings stand for the structures.

In test [1] the test system is breast cancer cell lines. Put plainly: Apoptosis by PI staining and FACS analysis of sub-G0/G1 DNA content. The test is classed as cell-based. On the procedure:
(§1) Cells from the breast cancer cell lines MDA-MB-231, BT-474, SKBR-3, and BT-20 were seeded into 96-well microculture plates at 10,000 cells per well and allowed to attach for 24 hours. Cells were then treated with 10 μM Lucanthone for 72 hours (48 hours for apoptosis assay). For immunoblotting, cells were harvested after treatment and cathepsin D levels were determined as described above. Pro-apoptotic effects following in vitro drug exposure were quantified by propidium iodide (PI) staining and fluorescence-activated cell sorting (FACS) analysis of sub-G0/G1 DNA content. Data is representative of three independent experiments.
Cells from the breast cancer cell lines MDA-MB-231, BT-474, SKBR-3, and BT-20 were seeded into 96-well microculture plates at 10,000 cells per well and allowed to attach for 24 hours. For immunoblotting, cells were then treated with 10 μM Lucanthone, 2.5 μM Vorinostat, or the combination for 72 hours, harvested, and cathepsin D levels were determined as described above. For the MTT cell viability assay, the cells were then treated with 10 μM Lucanthone, 2.5 μM Vorinostat, or the combination for 72 hours. After treatment, 3-(4,5-dimethylthiazol-2-yl)-2,5, diphenyltetrazolium bromide (MTT) was added after treatment and cell viability was quantified using a BioTek (Winooski, Vt.) microplate reader. […] Pro-apoptotic effects following in vitro drug exposure were quantified by propidium iodide (PI) staining and fluorescence-activated cell sorting (FACS) analysis of sub-G0/G1 DNA content. […]
Cells from the breast cancer cell lines MDA-MB-231 and BT-20 were seeded into 96-well microculture plates at 10,000 cells per well and allowed to attach for 24 hours. […] After treatment, 3-(4,5-dimethylthiazol-2-yl)-2,5, diphenyltetrazolium bromide (MTT) was added after treatment and cell viability was quantified using a BioTek (Winooski, Vt.) microplate reader. […] Pro-apoptotic effects following in vitro drug exposure were quantified by propidium iodide (PI) staining and fluorescence-activated cell sorting (FACS) analysis of sub-G0/G1 DNA content. […]

The next test deals with LC3-II, SQSTM1/p62. The test can be described thus: LC3-II formation and SQSTM1/p62 accumulation with Bafilomycin A1 (FIG. 1F). The test is classed as cell-based.
Test [2] relates to MDA-MB-231 breast cancer cell line. The test can be described thus: Vacuolization by Giemsa staining and transmission electron microscopy. The test is classed as cell-based. The settings on record: MDA-MB-231 cells, 48 hours; for accumulation of electron dense particles: 10 μM Lucanthone or 50 μM Chloroquine, transmission electron microscopy. On the procedure:
Increased vacuolization was visualized by Giemsa staining and transition electron microscopy. […] After drug treatment, cells were washed with PBS and fixed in methanol for 5 minutes. Cells were then incubated for 1 hour in Giemsa stain diluted 1:20 with deionized water. Cells were rinsed with water and imaged using an Olympus fluorescent microscope. Image-Pro Plus software Version 6.2.1 was used for image acquisition. Transmission electron microscopy of cells was performed using routine procedures. Sections were cut in an LKB Ultracut microtome (Leica, Deerfield, Ill.), stained with uranyl acetate and lead citrate, and examined in a JEM 1230 transmission electron microscope (JEOL, USA, Inc., Peabody, Mass.). Images were captured using the AMT Imaging System (Advanced Microscopy Techniques Corp, Danvers, Mass.).

For test [3] the test system is unchanged. The test can be described thus: Lysosomal membrane permeabilization by loss of acridine orange fluorescence. The test is classed as cell-based. The settings on record: MDA-MB-231 cells, 10 μM Lucanthone or 50 μM Chloroquine, 48 hours. The procedure:
The appearance of LMP was monitored by loss of acridine orange fluorescence. Acidic lysosomes were visualized by acridine orange staining. […] Cells were washed with PBS and images were captured using an Olympus fluorescent microscope. Based on the acidity, lysosomes appeared as orange fluorescent cytoplasmic vesicles. Quantification of 5 random fields of acridine orange intensity was measured by immunofluorescence and image acquisition were performed using Image-Pro Plus software Version 6.2.1.

For test [4], the system named is breast cancer cell lines. Put plainly: Cell viability by MTT assay in breast cancer cell lines. As to conditions: for IC50: 72 h, read-out: mean IC50, breast cancer cell viability. Format: cell-based.
Description: (§2) Data is representative of three independent experiments.
as §2, §2
A general note: Tetrazolium dyes change colour on reduction, which living cells bring about.

Another test has as its system LC3-II. Put plainly: Accumulation of LC3-II by immunocytochemistry. The test is classed as cell-based. As to conditions: MDA-MB-231 cells, 10 μM Lucanthone, 48 hours. On the procedure: Accumulation of LC3-II was visualized by immunocytochemistry. Cells from a MDA-MB-231 breast cancer cell line were plated on chamber slides and allowed to attach overnight. […] Following drug treatment, cells were fixed with 4% paraformaldehyde, permeabilized using 0.2% TRITON-X-100, and incubated overnight with indicated primary antibodies. Alexa Fluor 488 conjugated fluorescent secondary antibodies were used to visualize protein localization. Images were captured using an Olympus fluorescent microscope (Center Valley, P A) with a DP71 camera and a 60× objective. Image-Pro Plus software Version 6.2.1 (MediaCybernetics, Bethesda, Md.) was used for image acquisition.

The test system of a further test is SQSTMI/p62. The test can be described thus: SQSTMI/p62 levels and aggregation by immunoblotting and immunocytochemistry. Format: cell-based. As to conditions: MDA-MB-231 cells. On the procedure: This protein is degraded by autophagy, localized to cellular inclusion bodies, and has been proposed to play a role in facilitating protein aggregate clearance by autophagy. As such, a disruption of this process would result in the accumulation of SQSTMI/p62.
(§3) Levels and aggregation of SQSTMI/p62 were determined by immunoblotting and immunocytochemistry, respectively. […] Cells were harvested and were then lysed using routine procedures. Approximately 50 μg of total cellular protein from each sample were subjected to SDS-PAGE, proteins were transferred to nitrocellulose membranes, and the membranes were blocked with 5% nonfat milk in a Tris-buffered saline solution containing 0.1% TWEEN-20 for 1 hour. The blots were then probed overnight at 4° C. with primary antibodies, washed, and probed with species-specific secondary antibodies coupled to horseradish peroxidase. Immunoreactive material was detected by enhanced chemiluminescence (West Pico, Pierce, Inc., Rockville, Ill.).
On the technique in general: Immunoblotting shows a protein as a band on a membrane.

For test [5], the system named is MDA-MB-231 and BT-20 breast cancer cell lines. Put plainly: Affymetrix expression arrays. The test is classed as cell-based, human. As to conditions: MDA-MB-231 and BT-20 cells, 10 μM Lucanthone, 48 hours. On the procedure:
To further characterize the effects of Lucanthone on breast cancer cells, expression profiling was performed on breast cancer cell lines. Cells from a MDA-MB-231 and a BT-20 breast cancer cell line were treated with 10 μM Lucanthone for 48 hours. Total RNA was isolated using the RNeasy Plus Mini Kit (Qiagen, Germantown, Md.) and treated with TURBO DNA-Free™ Kit (Applied Biosystems, Foster City, Calif.). 300 ng of total RNA per sample was amplified and hybridized to […]® Human Gene 1.0 ST arrays (Affymetrix, Inc., Santa Clara, Calif.) according to the manufacturer's instructions. These arrays assay for the expression of about 28,869 well-annotated genes with 764,885 distinct probes. Affymetrix CEL files were imported into PARTEK® Genomics Suite™ 6.4 (Partek Inc., St. Louis, Mo.) using the default Partek normalization parameters and the robust multi-array average (RMA) analysis adjusted for probe sequence and GC content (GC-RMA). Data normalization was performed across all arrays using quantile normalization.

Test [6] deals with cathepsin D. The test can be described thus: Quantitative real-time PCR analysis of cathepsin D. The test is classed as cell-based. As to conditions: MDA-MB-231 and BT-20 cells, 10 μM Lucanthone, 48 hours, standardized to GAPDH. On the procedure: The lysosomal protease cathepsin D is a key mediator of apoptosis and its release into the cytosol has been reported to promote cell death. Considering this, we further evaluated the role of cathepsin D during Lucanthone-mediated cell death using quantitative real-time PCR (qRT-PCR). To perform qRT-PCR, cells from a MDA-MB-231 or a BT-20 cell lines were treated with 10 μM Lucanthone for 48 hours and then harvested for analysis. Total RNA was isolated using the RNeasy Plus Mini Kit (Qiagen, Germantown, Md.) and treated with TURBO DNAfree™ Kit (Applied Biosystems, Foster City, Calif.). First-strand cDNA synthesis was performed from 1 μg RNA in a 20 μL reaction mixture using the high-capacity cDNA Reverse Transcription Kit (Applied Biosystems, Foster City, Calif.). Cathepsin D and GAPDH transcripts were amplified using commercially available TaqMan@Gene expression assays (Applied Biosystems, Foster City, Calif.). Levels of mRNAs were standardized to the expression of GAPDH and relative gene expression was calculated with the 2^−ΔCt method.
In general terms: Quantitative PCR measures a nucleic acid by following its amplification.

Test [7] has as its system cathepsin D. The test can be described thus: Cathepsin D protein levels and aggregation by immunocytochemistry. Format: cell-based. The settings on record: immunocytochemistry (FIG. 3C).
In test [8] the test system is cathepsin D. Put plainly: Cathepsin D expression by immunoblotting in breast cancer cell lines. The test is classed as cell-based. The settings on record: MDA-MB-231, BT-474, SKBR-3, BT-20 cells, 10 μM Lucanthone, 72 hours. On the procedure: as §3
as §1, with “experiments. […]” for “experiments.”

The test system of test [9] is MDA-MB-231 breast cancer cell line. The test can be described thus: Lucanthone-induced apoptosis after cathepsin D siRNA knockdown. The test is classed as cell-based. The settings on record: MDA-MB-231 cells, 100 nM cathepsin D siRNA vs non-target siRNA, 10 μM Lucanthone, 48 hours. The procedure: To further establish the mechanistic role of cathepsin D in Lucanthone-induced apoptosis, siRNA was used to knockdown its expression (FIG. 4C). Preparation of siRNAs Cahepsin D and non-target SMARTpool siRNA were obtained from Dharmacon (Lafayette, Colo.). Cells from a MDA-MB-231 breast cancer cell line were transfected with 100 nM of either non-target or cathepsin D siRNA using Oligofectamine (Invitrogen, Carlsbad, Calif.) according to the manufacturers protocol. Transfected cells were incubated at 37° C. for 24 hours and then treated with 10 μM Lucanthone for 48 hours. Efficiency of RNAi was measured at 48 hours by immunoblotting using an α-cathepsin D antibody. Apoptosis was determined by PI staining and flow cytometry.

Test [10] has as its system cathepsin D. Put plainly: Cathepsin D accumulation in isogenic HCT116 p53 cell lines. The settings on record: HCT116 p53+1^+ and p53−1^− cell lines. Format: cell-based. An excerpt:
(§4) Loss of function of p53 is a frequent event in human cancer that is associated with tumorigenesis and drug resistance. […] To investigated the role of p53 in Lucanthone-mediated cell death, […]

Test [11] concerns HCT116 colorectal cancer cell lines. Put plainly: Cell viability in isogenic HCT116 p53 cell lines. The test is classed as cell-based. The settings on record: HCT116 p53+1^+ and p53−1^− cell lines.
Description: as §4

Where [12] appears, read: breast cancer cell lines, FIG. 1G.

Regarding `CO/C1=C\C(C)=C\[C@@H](C)[C@@H](O)[C@@H](C)C/C(C)=C/C=C/[C@H](OC)[C@@H]([C@@H](C)[C@@H](O)[C@H](C)[C@@]2(O)C[C@@H](O)[C@H](C)[C@@H](C(C)C)O2)OC1=O` [Bafilomycin A1], the apoptosis result in the test with breast cancer cell lines [1] (setting [12]) is recorded as “induce apoptosis in breast cancer cell lines”. Further, in the test with LC3-II, SQSTM1/p62, the LC3-II formation entry was “induce LC3-II formation” and the SQSTM1/p62 accumulation result is reported as “SQSTM1/p62 accumulation”.

A word on the IC50: it is the concentration that gives 50% inhibition. Consider `CCN(CC)CCCC(C)Nc1ccnc2cc(Cl)ccc12` (stereo not shown) [Chloroquine], for which the “accumulation of electron dense particles” value in test [2] was “induced an accumulation of electron dense particles”. Moreover, the “acridine orange staining intensity of lysosomes (lysosomal acidity)” value in [3] is recorded as “loss of lysosomal acidity”. Also, the IC50 in the test on breast cancer cell lines [4] was found to be 66 µM.

`CCN(CC)CCNc1ccc(C)c2sc3ccccc3c(=O)c12` [Lucanthone, 1-((2-(Diethylamino)ethyl)amino)-4-methylthioxanthen-9-one]: the “lipid modification of LC3 into LC3-II (punctate localization to autophagosomes)” value in the test on LC3-II was “induced lipid modification of LC3-1 into LC3-II”. For the same compound, in test [2], the “accumulation of electron dense particles” value is reported as “induced an accumulation of electron dense particles”. Also, in test [2] (10 μM Lucanthone, Giemsa staining), the cytoplasmic vacuolization entry is recorded as “induced cytoplasmic vacuolization”. Besides, in [3], the “acridine orange staining intensity of lysosomes (lysosomal acidity)” value is “decreased the red staining intensity of lysosomes”. Moreover, the SQSTMI/p62 levels entry in the test on SQSTMI/p62 (10 μM Lucanthone, 48 hours, immunoblotting) is “strongly increased”. The SQSTMI/p62 aggregation result with SQSTMI/p62 (immunocytochemistry) is “aggregated in response to Lucanthone”. In addition, in the test on breast cancer cell lines [4], the IC50 amounted to 7.2 µM. Moreover, the cell viability result in the test with breast cancer cell lines [4] (panel of seven breast cancer cell lines, varying concentrations, 72 hours, MTT) is “reduced cell viability to a similar extent in a panel of seven breast cancer cell lines”; in test [11], “reduced viability to a similar extent”. For the same compound, the “genes induced: cathepsin D (CTSD), MMPI, CYPIAI (upregulated by at least 4-fold)” value in test [5] was “increased in both cell lines”. Moreover, the “cathepsin D mRNA levels (qRT-PCR)” value in the test with cathepsin D [6] is reported as “induced a significant increase in cathepsin D levels in both cell lines”. Besides, in the test with cathepsin D [7], the “cathepsin D protein levels and cytosolic aggregation” value is “dramatically increased cathepsin D protein levels and promoted its cytosolic aggregation”. Further, the “cathepsin D levels” value with cathepsin D [8] is “strongly increased”. For the same compound, the apoptosis entry in the test with breast cancer cell lines [1] (MDA-MB-231, BT-474, SKBR-3, BT-20 cells, 10 μM Lucanthone, 48 hours, PI-FACS) is listed as “induces apoptosis in four different breast cancer cell lines”; with breast cancer cell lines [1] (setting [12]) it was “induce apoptosis in breast cancer cell lines”. In [9], the “sensitivity to Lucanthone-mediated apoptosis of cells with reduced cathepsin D levels” value was “significantly less sensitive”. In the test on cathepsin D [10], the “cathepsin D accumulation” value is “induced cathepsin D accumulation equally regardless of p53 status”. In addition, in the test on LC3-II, SQSTM1/p62, the LC3-II formation result is “induce LC3-II formation”. The SQSTM1/p62 accumulation result with LC3-II, SQSTM1/p62 is on record as “SQSTM1/p62 accumulation”.
